Reference: patent US8258295B2, “Triazine derivatives, compositions containing such derivatives, and methods of treatment of cancer and autoimmune diseases using such derivatives” (Prometic Biosciences Inc., priority 2007, dated 2012)
Where two headings read alike, the source gives them in different places.

Assays:
PBML cytotoxicity (MTT) = type: cell-based, human; details: human, resting PBML
Description: (§1) PBML were obtained from the peripheral blood of healthy volunteers. Blood was submitted to gradient centrifugation with Lympholyte-Poly media (Cedarlane, Hornby, Canada). The layer containing the mononuclear leukocytes was collected and the cells washed three times in PBS. Cells were then suspended in RPMI (Gibco, Burlington, Canada) supplemented with 10% FBS (Hyclone, Logan USA). Viability was greater than 99% as determined by trypan blue exclusion.
(§2) PBML were resuspended at 2×10^6 cells/ml. 100 μl of PBML (2×10^5 cells) were incubated in a 96-well microtiter plate for 48 hr in the presence or absence of compound. Cells were quiescent or stimulated with concanavalin A (con A; T-cells) or pokeweed mitogen (PWM; B-cells). After incubation, cells were treated with MTT (cytotoxicity) or pulsed with 1 μCi of [^3H]-thymidine (DNA synthesis), [^3H]-uridine (RNA synthesis), or [^3H]-leucine (protein synthesis) for 6 hr. Plates were harvested on a Tomteck and counted on a Microbeta β-counter.

[1] = tested on: peripheral blood mononuclear leukocytes (PBML); experiment: PBML cytotoxicity (MTT); type: cell-based, human; details: 48 hr
Description: as §1, §2

[2] = tested on: peripheral blood mononuclear leukocytes (PBML); experiment: PBML DNA synthesis ([3H]-thymidine); type: cell-based; details: Homo sapiens, Leukocyte, 48 hr
Description: as §1, §2

[3] = tested on: HUVEC (human umbilical vein endothelial cell); experiment: MTT cytotoxicity on HUVEC; type: cell-based
Method: (§3) This assay was performed to determine the effect of compounds of the present invention on cell cytotoxicity. Cells were incubated in presence or absence of compounds in their respective conditioned media. After 24 hr or 72 hr incubation, 50 μl of 3-(4,5-dimethyl-2-thiazyl)-2,5-diphenyl-2H-tetrazolium bromide (MTT; 2 mg/ml) was added and further incubated for 4 hr. The supernatant was discarded and 100 μl of dimethylsulfoxide (DMSO) was added. Absorbance was read at 570 nm with a TecanSunrise ELISA plate reader. The control group consisted of cells without compounds and is referred to as 100% of viable cells. IC50 was determined using Prism software.
(§4) All compounds have weak effect on cell cytotoxicity. The predictive utility of cell based cytotoxicity assays to assess the potential in vivo anticancer activity of compounds with selected cancer cell lines is well established in the art and the use of whole cells, instead of isolated protein receptors or enzymes, provides a more reliable determination of activity. See, for example, Paull et al. (J. Nat'l Cancer Inst. 81:1088-1092, 1989); Monks et al. (J. Nat'l Cancer Inst. 83:757-766, 1991); Bandes et al. (J. Nat'l Cancer Inst. 86:770-775, 1994); and Kamate et al. (Int'l J. Cancer 100:571-579, 2002).

TNFα = TNFα (Homo sapiens, UniProt P01375); experiment: TNFα-induced apoptosis in WEHI-13VAR cell line; type: cell-based; details: for inhibition at 10 µM: 1 × 10^−5 M; for inhibition at 20 µM: 2 × 10^−5 M; for inhibition at 40 µM: 4 × 10^−5 M; for inhibition at 5 µM: 5 × 10^−6 M
TNFα, sequence (P01375 77-233 limits assumed, species assumed): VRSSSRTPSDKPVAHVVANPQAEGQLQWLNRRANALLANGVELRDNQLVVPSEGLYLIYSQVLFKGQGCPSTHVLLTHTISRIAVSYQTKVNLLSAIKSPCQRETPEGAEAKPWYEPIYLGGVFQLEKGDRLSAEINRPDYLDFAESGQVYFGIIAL
Method: Effect of compounds on TNFα-induced apoptosis was measured by a standard biological assay using WEHI-13VAR cells. These cells undergo apoptosis when they are incubated in the presence of TNFα and actinomycin D. 2×10^4 WEHI-13VAR cells were incubated in RPMI supplemented with 1% sodium pyruvate and 10% FBS, overnight at 37° C. for cell adherence. The cells were then cultured in the presence of 1 μg/ml of actimomycin D ([…]) and 0.04 nM TNFα with or without compounds at 37° C. After 16 hr to 24 hr, 50 μl of a solution of 2 mg/ml of MIT was added to each well and the plate was then incubated for 4 hr at 37° C. Only viable cells metabolize MTT to form formazan salt, which is detectable by the measurement of absorbance at 570 nm. After the incubation, the plate was inverted to remove medium and dead cells. 150 μDMSO was added to each well to stop the reaction and solubilize the formazan salt. Optical density was read on a Bio-Tek EL 800 UV microplate reader. A decrease in the optical density is direct evidence of cell apoptosis induced by TNFα. Compounds were also compared to the activity of an anti-TNFα neutralizing antibody.

B16F10 melanoma = experiment: Primary B16F10 melanoma tumor in mice; type: in vivo; details: C57BL/6 mice, IV on day 14, 16, 18; FIG. 2A/2B
Method: Female 6-8 week old C57BL/6 mice were injected intradermally on day 0 with 50 μl of 3.75×10^4 viable B16F10 melanoma cells from ATCC (source of cell culture, Dr. I. J. Fidler). On day 14, tumors reached […] and animals were randomized for treatments. Animals were then injected IV with saline (negative control) or compound (5 mg/kg, 25 mg/kg, or 50 mg/kg) on day 14, day 16, and day 18 or 10 mg/kg doxorubicin (positive control) on day 14. Mice were sacrificed on day 29. Body weight and tumor volume were recorded. Serial tumor volume was obtained by bi-dimensional diameter measurements with calipers, using the formula 0.4 (a×b^2) where “a” was the major tumor diameter and “b” the minor perpendicular diameter. An antitumor effect can be quantitated by T/C, which is calculated as (Treated tumor volume/Control tumor volume)×100%.

[4] = tested on: PC-3 human prostate carcinoma cell; experiment: MTT cytotoxicity on PC-3; type: cell-based
Method: as §3, §4

[5] = tested on: peripheral blood mononuclear leukocytes (PBML); experiment: PBML protein synthesis ([3H]-leucine); type: cell-based; details: Homo sapiens, Leukocyte, 48 hr
Description: as §1, §2

[6] = tested on: peripheral blood mononuclear leukocytes (PBML); experiment: PBML RNA synthesis ([3H]-uridine); type: cell-based; details: Homo sapiens, Leukocyte, 48 hr
Description: as §1, §2

[7] = tested on: NHDF (normal human dermal fibroblast); experiment: MTT cytotoxicity on NHDF; type: cell-based
Method: as §3, §4

[8] = tested on: P815 murine mastocytoma cell; experiment: MTT cytotoxicity on P815; type: cell-based; details: Mus musculus
Method: as §3, §4

[9] = PWM stimulated PBML, read-out: Cytotoxicity PWM
[10] = con A stimulated PBML, read-out: Cytotoxicity Con A
[11] = PWM stimulated PBML, read-out: DNA Synthesis PWM
[12] = con A stimulated PBML, read-out: DNA Synthesis Con A
[13] = resting PBML, read-out: DNA Synthesis Resting
[14] = 24 hr culture, read-out: IC50 of 24-hour culture HUVEC
[15] = 72 hr culture, read-out: IC50 of 72-hour culture HUVEC
[16] = 24 hr culture, read-out: IC50 of 24-hour culture PC-3
[17] = 72 hr culture, read-out: IC50 of 72-hour culture PC-3
[18] = PWM stimulated PBML, read-out: Protein Synthesis PWM
[19] = con A stimulated PBML, read-out: Protein Synthesis Con A
[20] = resting PBML, read-out: Protein Synthesis Resting
[21] = PWM stimulated PBML, read-out: RNA Synthesis PWM
[22] = resting PBML, read-out: RNA Synthesis Resting
[23] = 24 hr culture, read-out: IC50 of 24-hour culture NHDF
[24] = 72 hr culture, read-out: IC50 of 72-hour culture NHDF
[25] = 24 hr culture, read-out: IC50 of 24-hour culture P815
[26] = 72 hr culture, read-out: IC50 of 72-hour culture P815

Structure (SMILES): NCCCCCNc1nc(NCCc2ccc(S(N)(=O)=O)cc2)nc(Nc2cccc(F)c2)n1 [Compound II]
- IC50 at 48 h (PBML cytotoxicity (MTT)): > 10 µM
- IC50 [1, 9]: > 10 µM
- IC50 [1, 10]: > 10 µM
- IC50 [2, 11]: 1.7 µM
- IC50 [2, 12]: 2.9 µM
- IC50 [2, 13]: > 10 µM
- IC50 [3, 14]: 92.2 µM
- IC50 [3, 15]: 38.9 µM
- inhibition at 10 µM (TNFα): 64.2%
- inhibition at 20 µM (TNFα): 83.8%
- inhibition at 40 µM (TNFα): 78.9%
- inhibition at 5 µM (TNFα): 45.2%
- T/C (treated/control tumor volume) (B16F10 melanoma): around 80%
- IC50 [4, 16]: 32.2 µM
- IC50 [4, 17]: 18.5 µM
- IC50 [5, 18]: 5.7 µM
- IC50 [5, 19]: 6.4 µM
- IC50 [5, 20]: > 10 µM
- IC50 [6, 21]: 1.1 µM
- IC50 [6, 22]: 5.8 µM
- IC50 [7, 23]: > 100 µM
- IC50 [7, 24]: 28.6 µM
- IC50 [8, 25]: 66.5 µM
- IC50 [8, 26]: 1.6 µM

Structure (SMILES): NCCCCCNc1nc(NCCc2ccc(O)cc2)nc(Nc2cccc(F)c2)n1 [Compound I]
- IC50 at 48 h (PBML cytotoxicity (MTT)): > 10 µM
- IC50 [1, 9]: > 10 µM
- IC50 [1, 10]: > 10 µM
- IC50 [2, 11]: 2.8 µM
- IC50 [2, 12]: 3.7 µM
- IC50 [2, 13]: > 10 µM
- IC50 [3, 14]: 18.8 µM
- IC50 [3, 15]: 10.1 µM
- inhibition at 10 µM (TNFα): 33.1%
- inhibition at 20 µM (TNFα): 58.9%
- inhibition at 5 µM (TNFα): 17.9%
- T/C (treated/control tumor volume) (B16F10 melanoma): around 80%
- IC50 [4, 16]: 49.4 µM
- IC50 [4, 17]: 11.8 µM
- IC50 [5, 18]: 9.9 µM
- IC50 [5, 19]: 4.4 µM
- IC50 [5, 20]: > 10 µM
- IC50 [6, 21]: 2.2 µM
- IC50 [6, 22]: 6.8 µM
- IC50 [7, 23]: 56.8 µM
- IC50 [7, 24]: 16.3 µM
- IC50 [8, 25]: 34 µM
- IC50 [8, 26]: 4 µM

Structure (SMILES): NCCCCCNc1nc(NCCc2ccc(O)cc2)nc(Nc2ccc(F)cc2)n1 [Compound V]
- IC50 at 48 h (PBML cytotoxicity (MTT)): > 10 µM
- IC50 [1, 9]: > 10 µM
- IC50 [1, 10]: > 10 µM
- IC50 [2, 11]: 6.1 µM
- IC50 [2, 12]: 8 µM
- IC50 [2, 13]: > 10 µM
- IC50 [3, 14]: 31.8 µM
- IC50 [3, 15]: > 100 µM
- inhibition at 10 µM (TNFα): 22.2%
- inhibition at 20 µM (TNFα): 51.9%
- inhibition at 40 µM (TNFα): 75.9%
- inhibition at 5 µM (TNFα): 8.2%
- T/C (treated/control tumor volume) (B16F10 melanoma): < 40%
- IC50 [4, 16]: 43.3 µM
- IC50 [4, 17]: 26.8 µM
- IC50 [5, 18]: > 10 µM
- IC50 [5, 19]: > 10 µM
- IC50 [5, 20]: > 10 µM
- IC50 [6, 21]: 4.5 µM
- IC50 ([6]; con A stimulated PBML, read-out: RNA Synthesis Con A): 6 µM
- IC50 [6, 22]: 7.4 µM
- IC50 [7, 23]: 78.6 µM
- IC50 [7, 24]: 45.8 µM
- IC50 [8, 25]: 23.5 µM
- IC50 [8, 26]: 7.5 µM
